According to ChEMBL document CHEMBL5316313, “Discovery of Novel 3-Phenylpiperidine Derivatives Targeting the β-Catenin/B-Cell Lymphoma 9 Interaction as a Single Agent and in Combination with the Anti-PD-1 Antibody for the Treatment of Colorectal Cancer” (J Med Chem, 2023):
Activity calls are given as the source filed them. The calls are words filed in the database; no cut-off is given here.

Experiments:
[1] = tested on: HCT-116; test: Antiproliferative activity against Wnt-dependent human HCT-116 cells assessed as cell growth inhibition incubated for 48 hrs by CellTiter-Glo assay; assay type: functional, cell-based
[2] = Toxicity in BALB/c mouse xenografted with mouse CT26 cells assessed as body weight loss at 30 mg/kg, ip QD and measured upto 9 days; assay type: organism-based; settings: in vivo, 216 h, time < 9 day
[3] = tested on: HCT-116; test: Induction of apoptosis in Wnt-dependent human HCT-116 cells assessed as necrotic cells at 10 uM incubated for 24 hrs by Annexin V-Alexa Fluor 647/PI staining based flow cytomtery (Rvb=1.47%); assay type: functional
[4] = Toxicity in BALB/c mouse xenografted with mouse CT26 cells assessed as pathological changes in spleen at 30 mg/kg, ip QD by hematoxylin and eosin staining based microscopic analysis; assay type: organism-based; settings: in vivo
[5] = Toxicity in BALB/c mouse xenografted with mouse CT26 cells assessed as adverse effect at 30 mg/kg, ip QD and measured upto 9 days; assay type: organism-based; settings: in vivo, 216 h, time < 9 day
[6] = tested on: RKO; test: Antiproliferative activity against Wnt-independent human RKO cells assessed as cell growth inhibition at 40 uM incubated for 48 hrs by CellTiter-Glo assay; assay type: functional, cell-based
[7] = Tmax in Sprague-Dawley rat at 21 mg/kg, ip and measured upto 24 hrs by LC-MS analysis; assay type: ADME, organism-based; settings: in vivo
[8] = tested on: CT26; test: Induction of apoptosis in Wnt-dependent mouse CT26 cells assessed as necrotic cells at 20 uM incubated for 24 hrs by Annexin V-Alexa Fluor 647/PI staining based flow cytomtery (Rvb=1.04%); assay type: functional
[9] = tested on: CT26; test: Induction of apoptosis in Wnt-dependent mouse CT26 cells assessed as early apoptotic cells at 20 uM incubated for 24 hrs by Annexin V-Alexa Fluor 647/PI staining based flow cytomtery (Rvb=18.3%); assay type: functional
[10] = tested on: CT26; test: Antitumor activity in mouse CT26 cells xenografted in BALB/c mouse assessed as increase in IFNgamma-positive CD8+ T cell infiltration into tumor at 30 mg/kg, ip QD by flow cytometry; assay type: functional, organism-based
[11] = Toxicity in BALB/c mouse xenografted with mouse CT26 cells assessed as pathological changes in lung at 30 mg/kg, ip QD in presence of anti-PD-1 antibody cotreatment at 10 mg/kg,ip BIW by hematoxylin and eosin staining based microscopic analysis; assay type: organism-based; settings: in vivo
[12] = tested on: CT26; test: Synergistic antitumor activity in mouse CT26 cells xenografted in BALB/c mouse assessed as increase in Cd8 mRNA expression level in tumor at 30 mg/kg, ip QD in presence of anti-PD-1 antibody cotreatment at 10 mg/kg,ip BIW by qRT-PCR analysis; assay type: functional, organism-based
[13] = tested on: CT26; test: Antiproliferative activity against Wnt-dependent mouse CT26 cells assessed as cell growth inhibition incubated for 48 hrs by CellTiter-Glo assay; assay type: functional, cell-based
[14] = tested on: CT26; test: Induction of apoptosis in Wnt-dependent mouse CT26 cells assessed as early apoptotic cells at 10 uM incubated for 24 hrs by Annexin V-Alexa Fluor 647/PI staining based flow cytomtery (Rvb=18.3%); assay type: functional
[15] = Toxicity in BALB/c mouse xenografted with mouse CT26 cells assessed as pathological changes in heart at 30 mg/kg, ip QD in presence of anti-PD-1 antibody cotreatment at 10 mg/kg,ip BIW by hematoxylin and eosin staining based microscopic analysis; assay type: organism-based; settings: in vivo
[16] = tested on: CT26; test: Synergistic antitumor activity in mouse CT26 cells xenografted in BALB/c mouse assessed as increase in CD8+ T cell infiltration into tumor at 30 mg/kg, ip QD in presence of anti-PD-1 antibody cotreatment at 10 mg/kg,ip BIW by flow cytometry; assay type: functional, organism-based
[17] = tested on: HEK293; test: Induction of apoptosis in Wnt-independent human HEK293 cells assessed as early apoptotic cells at 20 uM incubated for 24 hrs by Annexin V-Alexa Fluor 647/PI staining based flow cytomtery (Rvb=17.4%); assay type: functional

SMILES: CC(C)c1ccc(-c2cccc(S(=O)(=O)N3CCCC(c4cccc(OC(C)(C)C(=O)NS(=O)(=O)c5ccc(C(F)(F)F)cc5)c4)C3)c2)cc1 (configuration not stated)
- Activity [1]: Active
- Activity [2]: Non-Toxic
- Activity [3]: 2%
- Activity [4]: Non-Toxic
- Activity [5]: Non-Toxic
- Activity [6]: inactive
- Tmax [7]: 30 min
- Activity [8]: 1.42%
- Activity [9]: 28%
- Activity [10]: Active
- Activity [11]: Non-Toxic
- Activity [12]: Active
- Activity [13]: Active
- Activity [14]: 24%
- Activity [15]: Non-Toxic
- Activity [16]: Active
- Activity [17]: 17%
